Measurements: patent US20240003908A1, “POLYOL BIOMARKERS FOR CONGENITAL DISORDERS OF GLYCOSYLATION” (Mayo Foundation for Medical Education and Research, priority 2020, published 2024)

Test system: child with PMM2-CDG
Assay: Single patient (P1) study: clinical efficacy (ICARS, NPCRS, BMI, weight)
Assay type: in vivo, human
Conditions: same patient, five months acetazolamide before epalrestat; from 66
Procedure: Prospectively collected clinical and laboratory data in 24 PMM2-CDG patients: The genetic, laboratory, metabolic, and clinical data of 24 PMM2-CDG patients were evaluated (TABLES 2A and 2B). Disease severity was assessed by Nijmegen Pediatric CDG Rating Scale (NPCRS), (most severe=82; mild (0-14), moderate (15-25), severe (>26)) (Achouitar et al., J Inherit Metab Dis 34:923-927, 2011; and Martinez-Monseny et al., Ann Neurol 85:740-751, 2019). Patient P1 and twin patients P4 and P5 also were discussed elsewhere (Qian et al., JIMD Rep 56:27-33, 2020; and Jaeken et al., Ped Res 14:179, 1980). P1, enrolled in a single IND clinical trial, was additionally evaluated by the International cooperative ataxia rating scale (ICARS) (Trouillas et al., J Neurol Sci 145:205-211, 1997), which assesses limb ataxia, dysarthria, posture and gait disturbances, and oculomotor disorders (0=normal; 100=most severe). Urinary polyols including sorbitol and mannitol were analyzed by GC/MS in 23 out of the 24 PMM2-CDG patients (patient P6 was deceased). In addition, functional in vitro data was collected from the fibroblasts of P1-P6, P8, P10, P17, P19, and P24.
Study design: An open label, single patient (P1) compassionate use study was designed to assess the safety and tolerability of oral epalrestat therapy in a child with PMM2-CDG.
Patient assessment: Prior to the first dose of epalrestat and at 1, 2, 3, 6, 8, 9, 12 months during treatment, concomitant medications and vital signs were recorded and the patient was evaluated using the NPCRS. In addition, blood was drawn for serum chemistry, hematology, and plasma levels of epalrestat. Urine was collected for polyol measurement at baseline and twice over the course of 12 months of therapy.
Drug administration: Epalrestat was administered orally, 3 times per day (TID) before meals in a divided dose (0.8 mg/kg/day; 5 mg TID) of epalrestat (Ono Pharmaceuticals, Osaka, Japan) starting on Day 1 of the study.
Safety and efficacy: Safety measures included vital signs, change in CBC, liver function (INR, bilirubin, transaminases, and albumin) in blood, change in liver elastography, and following the pharmacokinetic profile of epalrestat. The efficacy of epalrestat was studied by clinical follow up (physical exam, NPCRS, ICARS), standard laboratory tests, and transferrin glycoform analysis by mass spectrometry.

Compound: CC(=O)Nc1nnc(S(N)(=O)=O)s1 [acetazolamide]
- ICARS score: 56
